# Test system: GPNMB
# Experiment: Immunoblotting for GPNMB on whole-cell lysates of cancer cell lines after drug exposure
# Format: cell-based, human
# Text: Cancer cell lines were of human origin and were obtained from the American Type Culture Collection (Manassas, Va.) and from the National Cancer Institute (Bethesda, Md.) and cultured in RPMI-1640 supplemented with 10% FBS (growth media). Sources of reagents were as follows: RAFKi (553013), MEKi (U0126), MEKi (PD98059), MEKi (444939), ERKi (FR180204), p38 MAPKi (SB202190), p38 MAPKi (SB203580), aurora kinase inhibitor (189404), JNK inhibitor (420119), MMPi (GM6001) were from EMD Chemicals (San Diego, Calif.). ERKi (A6355), RAFKi: (GW5074), ammonium chloride (NH4Cl), chloroquine, monensin, cyclohexamide and emetine were from Sigma (Saint Louis, Mo.). HSP90i (geldanamycin) was from AG Scientific (San Diego, Calif.) and imatinib (Gleevec) was purchased from a pharmacy.
# Cells were seeded in 6-well tissue culture dishes at a subconfluent density and allowed to attach overnight. For harvesting cell lysates, media was removed, cells were briefly washed with serum-free media and then 1× Tris-glycine SDS sample buffer (Invitrogen, Carlsbad, Calif.) supplemented with 10 mM dithiothreitol (Sigma) was added directly to the wells. Cell lysates were then collected and boiled for 10 minutes. For preparing conditioned media, drug treatments were performed in a minimum volume of growth media (1.5 mL/well). Following 48 hours of incubation, conditioned media was collected, briefly microfuged, mixed with an equal volume of 2× Tris-glycine SDS sample buffer (Invitrogen, Carlsbad, Calif.) supplemented with 20 mM dithiothreitol (Sigma) and boiled for 10 minutes. For cell lysates, samples were quantified and an equal quantity of protein/lane was resolved on 4-20% gradient polyacrylamide gels (Invitrogen) and then transferred to nitrocellulose filters (Invitrogen). The volume of conditioned media loaded/lane was adjusted based on the protein concentration determined in the respective cell lysates. Immunoblotting was performed using standard procedures and the following primary antibodies: MARTI (sc-20032), TYRP2 (sc-25544), TYRP1 (sc-25543), PMEL17 (sc-15010), MAGEA1 (sc-20033), MCSP (sc-20162), MTf (sc-26651), MCAM (sc-18942), pp-ERK (sc-7976) and ERK (sc-94) (preceding antibodies were purchased from Santa Cruz Biotechnologies, Santa Cruz, Calif.), GPNMB (AF2550; R & D Systems, Minneapolis Minn.), actin (A5060; Sigma). Following incubation with the appropriate horseradish peroxidase-conjugated secondary antibodies, enhanced chemiluminescence (GE Healthcare, Chalfont St. Giles, United Kingdom) was used for detection.
smiles,measurement,value
N#CC(=C(/N)Sc1ccccc1N)/C(C#N)=C(\N)Sc1ccccc1N [Mab U0126],"GPNMB induction (immunoblotting), kinetics and drug concentration",increased with exposure time
same,GPNMB induction compared to other melanoma-associated proteins,most consistently induced

# Reference: patent publication US20140314780A1, “Compositions Using Antibodies Directed to GPNMB and Uses Thereof” (Celldex Therapeutics, Inc., priority 2008, published 2014)
